# Values of other authors as cited in PubChem BioAssay AID1259409 (Chemical Carcinogenesis Research Information System (CCRIS), 2018).
# Tested on: rodent chemically induced tumor inhibition, incidence and multiplicity
# Assay: CCRIS tumor inhibitor studies
# Conditions: Promoter: NONE USED
smiles,measurement,setting,value
O=c1oc2c(O)c(O)cc3c(=O)oc4c(O)c(O)cc1c4c23,"tumour outcome (control, treated, inhibition, significance)","Carcinogen: 2-AMINO-1-METHYL-6-PHENYL-1H-IMIDAZO[4,5-B]PYRID INE, 105650-23-5, Dose [Inhibitor]: 0, 0.1% IN THE DIET FOR 52 WK (STUDY DURATION: 52 WK), Route [Inhibitor]: ORAL, Species: RAT, Strain/Sex: F344/FEMALE, Target Tissue: Type of Lesion: MAMMARY GLAND: ADENOCARCINOMA, Dose [Carcinogen]: 0.02% IN THE DIET FOR 52 WK","8/20 (40%), 5/19 (26%), 35%, not significant"
same,"tumour outcome (control, treated, inhibition, significance)","Carcinogen: 2-AMINO-1-METHYL-6-PHENYL-1H-IMIDAZO[4,5-B]PYRID INE, 105650-23-5, Dose [Inhibitor]: 0, 0.1% IN THE DIET FOR 52 WK (STUDY DURATION: 52 WK), Route [Inhibitor]: ORAL, Species: RAT, Strain/Sex: F344/FEMALE, Target Tissue: Type of Lesion: MAMMARY GLAND: FIBROADENOMA, Dose [Carcinogen]: 0.02% IN THE DIET FOR 52 WK","2/20 (10%), 0/19 (0%), 100%, not significant"
same,"tumour outcome (control, treated, inhibition, significance)","Carcinogen: 2-AMINO-1-METHYL-6-PHENYLIMIDAZO[4,5-B]PYRIDINE, 105650-23-5, Dose [Inhibitor]: 0, 0.1% IN DIET FOR 52 WK CONCURRENTLY WITH CARCINOGEN TREATMENT (STUDY DURATION: 52 WK), Route [Inhibitor]: ORAL, Species: RAT, Strain/Sex: F344/FEMALE, Target Tissue: Type of Lesion: LARGE INTESTINE: ADENOMA OR CARCINOMA, Dose [Carcinogen]: 0.02% IN DIET FOR 52 WK","2/18 (11%), 3/18 (17%), -55%, not significant"
same,"tumour outcome (control, treated, inhibition, significance)","Carcinogen: 2-AMINO-1-METHYL-6-PHENYLIMIDAZO[4,5-B]PYRIDINE, 105650-23-5, Dose [Inhibitor]: 0, 0.1% IN DIET FOR 52 WK CONCURRENTLY WITH CARCINOGEN TREATMENT (STUDY DURATION: 52 WK), Route [Inhibitor]: ORAL, Species: RAT, Strain/Sex: F344/FEMALE, Target Tissue: Type of Lesion: MAMMARY GLAND: ADENOCARCINOMA, Dose [Carcinogen]: 0.02% IN DIET FOR 52 WK","8/20 (40%), 5/19 (26%), 35%, not significant"
same,"tumour outcome (control, treated, inhibition, significance)","Carcinogen: 3-METHYLCHOLANTHRENE, 56-49-5, Dose [Inhibitor]: 1 UMOL 2/WK FOR 16 WK APPLIED 1 HR PRIOR TO EACH CARCINOGEN TREATMENT (STUDY DURATION: 16 WK), Route [Inhibitor]: DERMAL, Species: MOUSE, Strain/Sex: BALB/FEMALE, Target Tissue: Type of Lesion: SKIN: TUMOR, Dose [Carcinogen]: 1.5 UMOL 2/WK FOR 16 WK","100%, 50%, 50%, not calculated"
same,"tumour outcome (control, treated, inhibition, significance)","Carcinogen: 3-METHYLCHOLANTHRENE, 56-49-5, Dose [Inhibitor]: 1.0 UMOL APPLIED 1 HR PRIOR TO EACH CARCINOGEN DOSE 2/WK FOR 16 WK (STUDY DURATION: 16 WK), Route [Inhibitor]: DERMAL, Species: MOUSE, Strain/Sex: BALB/FEMALE, Target Tissue: Type of Lesion: SKIN: TUMOR, Dose [Carcinogen]: 1.5 UMOL 2/WK FOR 16 WK","100%, 50%, 50%, not calculated"
same,"tumour outcome (control, treated, inhibition, significance)","Carcinogen: 3-METHYLCHOLANTHRENE, 56-49-5, Dose [Inhibitor]: 2 UMOL 2/WK FOR 16 WK APPLIED 1 HR PRIOR TO EACH CARCINOGEN TREATMENT (STUDY DURATION: 16 WK), Route [Inhibitor]: DERMAL, Species: MOUSE, Strain/Sex: BALB/FEMALE, Target Tissue: Type of Lesion: SKIN: TUMOR, Dose [Carcinogen]: 1.5 UMOL 2/WK FOR 16 WK","100%, 40%, 60%, not calculated"
same,"tumour outcome (control, treated, inhibition, significance)","Carcinogen: 3-METHYLCHOLANTHRENE, 56-49-5, Dose [Inhibitor]: 2 UMOL APPLIED 1 HR PRIOR TO EACH CARCINOGEN DOSE 2/WK FOR 16 WK (STUDY DURATION : 16 WK), Route [Inhibitor]: DERMAL, Species: MOUSE, Strain/Sex: BALB/FEMALE, Target Tissue: Type of Lesion: SKIN: TUMOR, Dose [Carcinogen]: 1.5 UMOL 2/WK FOR 16 WK","100%, 40%, 60%, not calculated"
same,"tumour outcome (control, treated, inhibition, significance)","Carcinogen: 4-(METHYLNITROSAMINO)-1-(3-PYRIDYL)-1-BUTANONE, 64091-91-4, Dose [Inhibitor]: 0, 4 G/KG DIET 2 WK PRIOR TO CARCINOGEN TREATMENT AND CONTINUING FOR STUDY DURATION (STUDY DURATION: 26 MO), Route [Inhibitor]: ORAL, Species: MOUSE, Strain/Sex: STRAIN-A/FEMALE, Target Tissue: Type of Lesion: LUNG: ADENOMA, Dose [Carcinogen]: TOTAL DOSE 9.2 MG/MOUSE ADMINISTERED IN DRINKING WATER","100%, 96%, 4%, not calculated"
same,"tumour outcome (control, treated, inhibition, significance)","Carcinogen: 4-(METHYLNITROSAMINO)-1-(PYRIDYL)-1-BUTANONE, 64091-91-4, Dose [Inhibitor]: 0, 4 G/KG DIET (37 UMOL/D) BEGINNING 2 WK PRIOR TO CARCINOGEN DOSE AND CONTINUING FOR DURATION OF STUDY (STUDY DURATION:, Route [Inhibitor]: ORAL, Species: MOUSE, Strain/Sex: STRAIN-A/FEMALE, Target Tissue: Type of Lesion: LUNG: ADENOMA, Dose [Carcinogen]: 9.2, 9.4 MG/MOUSE IN DRINKING WATER DURING 7 WK","28/28 (100%), 24/25 (96%), 4%, not significant"
same,"tumour outcome (control, treated, inhibition, significance)","Carcinogen: 4-(METHYLNITROSOAMINO-1-(PYRIDYL)-1-BUTANONE, 64091-91-4, Dose [Inhibitor]: 0, 4 G/KG DIET BEGINNING 1 D POST CARCINOGEN DOSE AND CONTINUING FOR 16 WK (STUDY DURATION: 16 WK), Route [Inhibitor]: ORAL, Species: MOUSE, Strain/Sex: STRAIN-A/FEMALE, Target Tissue: Type of Lesion: LUNG: ADENOMA, Dose [Carcinogen]: 2 MG IN 0.2 ML OF O.9% NACL ONCE","100%, 100%, 0%, not significant"
